According to patent US8163805B2, “Small molecule antagonists of Bcl-2 family proteins” (The Regents of the University of Michigan, priority 2001, dated 2012):

How the values were obtained:
UM-SCC-74B = test: 6-day MTT cell growth, UM-SCC-74B; assay type: cell-based, human; conditions: read-out: IC50, inhibition of cell growth
Experimental: (§1) UM-SCC and human fibroblast cell lines were continuously exposed to varying concentrations of (−)-gossypol in 6-day MTT cell survival assays. Control wells contained media (DMEM) with vehicle alone. For each data point n=5.
(§2) Ten squamous cell carcinoma cell lines established at the University of Michigan (UM-SCC) and three human fibroblast lines were grown in Dulbecco's modified Eagle's medium (DMEM) supplemented with 10% fetal bovine serum. UM-SCC cell lines originated from the larynx (n=2; UM-SCC-12, -23), oral cavity/oropharynx (n=5; UM-SCC-1, -6, -14A, -74B, -81B), hypopharynx (n=1; UM-SCC-22A) and metastases from laryngeal cancers (n=2; UM-SCC-17B, -25). Human fibroblast cell lines originated from surgical specimens (fibroblast cell lines 2 and 3) and neonatal foreskin samples (fibroblast cell line 1).
(§3) Logarithmically growing cell lines were cultured, washed, counted, and plated at 5,000-15,000 cells per well in duplicate wells of 96-well plates and incubated in DMEM overnight. […] The MTT assay measures cell survival based on mitochondrial conversion of MTT from a soluble tetrazolium salt into an insoluble colored formazan precipitate, which is dissolved in dimethyl sulfoxide and quantitated by spectrophotometry. […] Percent absorbance relative to control was plotted as a linear function of drug concentration.

[1] = tested on: Fib-1 (fibroblast cell line 1); test: 6-day MTT cell growth, Fib-1; assay type: cell-based, human; conditions: read-out: IC50, inhibition of cell growth
Experimental: as §1, §2, §3

UM-SCC-25 = test: 6-day MTT cell growth, UM-SCC-25; assay type: cell-based, human; conditions: read-out: IC50, inhibition of cell growth
Experimental: as §1, §2, §3

[2] = tested on: colon cancer cell line HT-29 xenograft; conditions: Table 12; cisplatin 10 mg/kg i.v. twice q week; most mice, during the 2nd week of treatment; dose too high
[3] = tested on: Fib-2 (fibroblast cell line 2); test: 6-day MTT cell growth, Fib-2; assay type: cell-based, human; conditions: read-out: IC50, inhibition of cell growth
Experimental: as §1, §2, §3

[4] = tested on: PC-3 human prostate cancer bilateral xenografts; test: PC-3 xenograft, (−)-gossypol alone and with cisplatin (Table 11); assay type: in vivo, NCr-nu nude mouse; conditions: mouse, in vivo
UM-SCC-12 = test: 6-day MTT cell growth, UM-SCC-12; assay type: cell-based, human; conditions: read-out: IC50, inhibition of cell growth
Experimental: as §1, §2, §3

UM-SCC-17B = test: 6-day MTT cell growth, UM-SCC-17B; assay type: cell-based, human; conditions: read-out: IC50, inhibition of cell growth
Experimental: as §1, §2, §3

UM-SCC-81B = test: 6-day MTT cell growth, UM-SCC-81B; assay type: cell-based, human; conditions: read-out: IC50, inhibition of cell growth
Experimental: as §1, §2, §3

UM-SCC-14A = test: 6-day MTT cell growth, UM-SCC-14A; assay type: cell-based, human; conditions: read-out: IC50, inhibition of cell growth
Experimental: as §1, §2, §3

UM-SCC-6 = test: 6-day MTT cell growth, UM-SCC-6; assay type: cell-based, human; conditions: read-out: IC50, inhibition of cell growth
Experimental: as §1, §2, §3

UM-SCC-22A = test: 6-day MTT cell growth, UM-SCC-22A; assay type: cell-based, human; conditions: read-out: IC50, inhibition of cell growth
Experimental: as §1, §2, §3

[5] = tested on: Fib-3 (fibroblast cell line 3); test: 6-day MTT cell growth, Fib-3; assay type: cell-based, human; conditions: read-out: IC50, inhibition of cell growth
Experimental: as §1, §2, §3

UM-SCC-23 = test: 6-day MTT cell growth, UM-SCC-23; assay type: cell-based, human; conditions: read-out: IC50, inhibition of cell growth
Experimental: as §1, §2, §3

UM-SCC-1 = test: 6-day MTT cell growth, UM-SCC-1; assay type: cell-based, human; conditions: read-out: IC50, inhibition of cell growth
Experimental: as §1, §2, §3

[6] = tested on: A549 non-small cell lung carcinoma xenograft; test: A549 non-small cell lung carcinoma xenograft, (−)-gossypol with paclitaxel; conditions: Table 13; paclitaxel 15 mg/kg i.p. twice q week for 3 weeks, alone
[7] = tested on: A549 non-small cell lung carcinoma xenograft; conditions: mouse, in vivo

weight loss [7] | Structure (SMILES) | IC50 (UM-SCC-74B) [µM] | IC50 [1] [µM] | IC50 (UM-SCC-25) [µM] | mortality in cisplatin treated group [2] | IC50 [3] [µM] | time after CDDP treatment stopped when mice started to gain back the weight [4] | IC50 (UM-SCC-12) [µM] | IC50 (UM-SCC-17B) [µM] | IC50 (UM-SCC-81B) [µM] | IC50 (UM-SCC-14A) [µM] | IC50 (UM-SCC-6) [µM] | IC50 (UM-SCC-22A) [µM] | IC50 [5] [µM] | IC50 (UM-SCC-23) [µM] | IC50 (UM-SCC-1) [µM] | tumor growth inhibition [6]
– | N.N.[Cl][Pt][Cl] [Cisplatin, cisplatin, reference compound] | 12 | > 50 | 43 | mice were dead in the cisplatin | > 50 | to gain back the weight 1-2 weeks | 22 | 13 | 22 | 29 | > 50 | 5 | > 50 | 25 | 30 | –
There was no weight loss in mice | CC(=O)O[C@H]1C(=O)[C@@]2(C)[C@H]([C@H](OC(=O)c3ccccc3)[C@]3(O)C[C@H](OC(=O)[C@H](O)[C@@H](NC(=O)c4ccccc4)c4ccccc4)C(C)=C1C3(C)C)[C@]1(OC(C)=O)CO[C@@H]1C[C@@H]2O [Paclitaxel] | – | – | – | – | – | – | – | – | – | – | – | – | – | – | – | achieved about 67% tumor growth
